Measurements from patent US11845681B2, “Process and plant for treating wastewater containing micropollutants of pharmaceutical origin” (Cockerill Maintenance & Ingenierie S.A., priority 2018, dated 2023).

Legend:
suspended biomass = conditions: constant includes sorption, desorption and biodegradation; cited from earlier work
fixed biomass = conditions: constant includes sorption, desorption and biodegradation; cited from earlier work
[1] = Purification efficiency of biologically activated carbon (BAC) columns C1 to C5; conditions: for average degradation: detailed analysis on 16 molecules, over column conditions; for effect of EBCT on degradation: longer EBCTs (e.g. 19 minutes)
Source text: The activated carbon used was in GAC form, for example of the Norit 830W type (Cabot). According to the invention, however, several types of activated carbon may be used, by varying the nature of the carbon, the specific surface developed and the type of pores.
According to one embodiment, the GAC was conditioned for 2 months with the wastewater effluents coming from the MB-MBR before being placed in an acrylic glass column. Operation was monitored for approximately 5 months. The purpose of conditioning is to reduce the time before the breakthrough point of the filter, i.e. the moment when the adsorption capacity is exhausted and biodegradation is the dominant process.
The biological purification performance of micropollutants was evaluated according to the following methodology: • 1. Saturation of adsorption sites and verification by measuring the reduction in dissolved organic carbon; • 2. Evaluation of bacterial activity via measurements of oxygen consumption; • 3. Correlation analyzes between bacterial activity and micropollutant removal.
Based on the operational parameters selected for columns C1 to C5, the purification efficiencies of 12 of the 13 molecules indicative of the efficiency of the method are presented in FIG. 8.

## CC(=O)Nc1ccc(S(=O)(=O)Nc2cc(C)on2)cc1 [N-acetylsulfamethoxazole]
Suspended biomass
  Kbio, Biomass suspended: 1.1-1.4 l/g biomass · day
Fixed biomass
  Kbio, Biomass Fixed: 0.7-1.6 l/g biomass · day

## O=P1(N(CCCl)CCCl)NCCCO1 (stereo not shown) [cyclophosphamide]
[1]
  average degradation: around 50%
  effect of EBCT on degradation: better degraded with longer EBCTs

## O=C(O)Cc1ccccc1Nc1c(Cl)cccc1Cl [Diclofenac]
Suspended biomass
  Kbio, Biomass suspended: ≤0.1 l/g biomass · day
[1]
  average degradation: around 50%
  effect of EBCT on degradation: better degraded with longer EBCTs
Fixed biomass
  Kbio, Biomass Fixed: 1.3-1.7 l/g biomass · day

## NC(=O)N1c2ccccc2C=Cc2ccccc21 [Carbamazepine]
Suspended biomass
  Kbio, Biomass suspended: ≤0.1 l/g biomass · day
Fixed biomass
  Kbio, Biomass Fixed: ≤0.1 l/g biomass · day

## CC[C@H]1OC(=O)[C@H](C)[C@@H](O[C@H]2C[C@@](C)(OC)[C@@H](O)[C@H](C)O2)[C@H](C)[C@@H](O[C@@H]2O[C@H](C)C[C@H](N(C)C)[C@H]2O)[C@](C)(OC)C[C@@H](C)C(=O)[C@H](C)[C@@H](O)[C@]1(C)O [Clarithromycin]
Suspended biomass
  Kbio, Biomass suspended: 0.18-0.29 l/g biomass · day
[1]
  average degradation: around 50%
  effect of EBCT on degradation: better degraded with longer EBCTs
Fixed biomass
  Kbio, Biomass Fixed: ≤0.2 l/g biomass · day

## CC(C)NCC(O)COc1ccc(CC(N)=O)cc1 (stereo not shown) [Atenolol]
Suspended biomass
  Kbio, Biomass suspended: 0.67-0.9 l/g biomass · day
Fixed biomass
  Kbio, Biomass Fixed: 0.53-0.67 l/g biomass · day
